{
  "source": "paper PMC10590419",
  "about": "“Structural and mechanistic insights into the inhibition of respiratory syncytial virus polymerase by a non-nucleoside inhibitor” (Communications Biology, 2023)",
  "key": {"[1]": {"molecular_target": "T1, Human DNA polymerase beta (Homo sapiens, UniProt P06746)", "T1 construct": "purchased CHIMERx", "assay": "DNA-dependent DNA polymerase activity", "type": "biochemical", "settings": "DNA Pol β", "description": "(§1) to the method described previously 1. A 25 nM solution of RSV MTase-CTD protein or RSV L+P complex was incubated with 0.7 µM or 1.8 µM purified synthetic RNA 5’-Gppp […]\n(§2) […] (RSV9) for the MTase-CTD or L+P complex, respectively; 2 µM or 0.17 µM S-adenosyl methionine (SAM) for the MTase-CTD or L–P complex, respectively; and 0.1 µM or 0.8 µM 3H-SAM (Perkin Elmer) for the MTase-CTD or L–P complex, respectively; in 50 mM Tris-HCl pH 8.0. Compounds, previously dissolved in DMSO were added at a final concentration of 50 µM or 200 µM. After 3 h incubation at 30°C, reactions were quenched by a 20-fold dilution in ice cold water. Samples were transferred to DEAE filtermats (Perkin Elmer) using a Filtermat Harvester (Packard Instruments). The RNA-retaining mats were washed twice with 10 mM ammonium formate pH 8.0, twice with water and once with ethanol. They were then soaked with scintillation fluid (Perkin Elmer), and 3H-methyl transfer to the RNA substrates was determined using a Wallac MicroBeta TriLux Liquid Scintillation Counter.\n(§3) Cellular polymerase assays\n(§4) DNA-dependant DNA polymerase (DdDp) activity\n(§5) Human DNA polymerases alpha (CHIMERx) at 5 U/ml, beta (CHIMERx) at 0.5 U/ml and gamma (Abcam) at 0.1 mg/ml were incubated with the tested inhibitors at specified concentrations, and a reaction mix composed of 62 µg/ml activated calf thymus DNA, dGTP (2 µM), dATP (2 µM), dCTP (2 µM), [ 3H]dTTP (0.05 µCi/µl), 0.1 mg/ml BSA and a buffer composed of Tris-HCl pH 8 (50 mM), MgCl 2 (5 mM), KCl (60 mM), and DTT (4 mM.) in a total volume of 50 µl. After 2 hours incubation at 30°C, reaction was terminated by addition of 60 µl of a chilled stop solution composed of 20% (w/v) TCA with 0.5 mM ATP. […] Radioactivity was measured via liquid scintillation counting (MicroScint-20, 40µl) on a TriLux apparatus. […]\n(§6) The RNA transcription activity of human mitochondrial RNA polymerase (POLRMT) was measured by the incorporation of radioactively labeled nucleotides by POLRMT into acid-insoluble RNA products as described previously 2. […]"}, "[2]": {"molecular_target": "T2, Human DNA polymerase alpha (Homo sapiens, UniProt P09884)", "T2 construct": "purchased CHIMERx", "T2 sequence (P09884 1-1462)": "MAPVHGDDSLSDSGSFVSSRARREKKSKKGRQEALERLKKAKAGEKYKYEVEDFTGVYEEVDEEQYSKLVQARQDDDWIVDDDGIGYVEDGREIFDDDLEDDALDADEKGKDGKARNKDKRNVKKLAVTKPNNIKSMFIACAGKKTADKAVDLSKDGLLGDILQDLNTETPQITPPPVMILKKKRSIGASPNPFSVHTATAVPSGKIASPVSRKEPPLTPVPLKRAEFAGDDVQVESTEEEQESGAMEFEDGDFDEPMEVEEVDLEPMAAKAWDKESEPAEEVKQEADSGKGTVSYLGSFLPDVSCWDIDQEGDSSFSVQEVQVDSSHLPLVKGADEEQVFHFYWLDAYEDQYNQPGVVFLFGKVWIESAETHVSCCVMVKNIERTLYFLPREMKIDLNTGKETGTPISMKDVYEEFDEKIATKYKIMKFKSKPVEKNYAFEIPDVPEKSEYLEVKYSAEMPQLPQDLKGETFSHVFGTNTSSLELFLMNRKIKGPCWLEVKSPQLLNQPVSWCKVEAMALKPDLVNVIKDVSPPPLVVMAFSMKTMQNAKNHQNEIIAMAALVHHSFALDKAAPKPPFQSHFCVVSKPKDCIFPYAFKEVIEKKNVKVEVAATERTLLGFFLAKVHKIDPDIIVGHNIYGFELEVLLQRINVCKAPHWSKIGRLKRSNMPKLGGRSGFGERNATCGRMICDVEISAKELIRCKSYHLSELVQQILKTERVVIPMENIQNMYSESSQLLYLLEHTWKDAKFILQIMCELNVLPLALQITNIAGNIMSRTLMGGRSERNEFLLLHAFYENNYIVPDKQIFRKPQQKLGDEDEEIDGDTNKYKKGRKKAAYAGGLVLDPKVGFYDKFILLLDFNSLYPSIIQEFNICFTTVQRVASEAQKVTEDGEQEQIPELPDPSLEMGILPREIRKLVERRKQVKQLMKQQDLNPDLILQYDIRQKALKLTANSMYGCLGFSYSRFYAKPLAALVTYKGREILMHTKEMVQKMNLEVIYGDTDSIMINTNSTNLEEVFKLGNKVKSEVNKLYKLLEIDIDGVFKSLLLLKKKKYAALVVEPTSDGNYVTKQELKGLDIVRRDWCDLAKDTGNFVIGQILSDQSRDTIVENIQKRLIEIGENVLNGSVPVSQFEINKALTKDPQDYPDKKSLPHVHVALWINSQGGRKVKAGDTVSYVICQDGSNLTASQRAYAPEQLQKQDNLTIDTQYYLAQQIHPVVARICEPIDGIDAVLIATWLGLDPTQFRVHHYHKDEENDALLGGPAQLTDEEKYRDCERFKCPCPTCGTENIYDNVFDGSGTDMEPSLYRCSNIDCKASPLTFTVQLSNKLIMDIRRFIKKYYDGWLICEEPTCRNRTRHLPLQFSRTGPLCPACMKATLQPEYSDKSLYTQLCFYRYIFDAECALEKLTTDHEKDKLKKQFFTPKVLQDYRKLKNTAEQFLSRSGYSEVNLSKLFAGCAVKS", "assay": "DNA-dependent DNA polymerase activity", "type": "biochemical", "settings": "DNA Pol α", "description": "as §1, §2, §3, §4, §5, §6"}},
  "note": "pIC50: −log10 of the molar value.",
  "data": [
    {"smiles": "COc1cc(C(=O)NC[C@](O)(c2cc(C(C)(C)O)c(F)c(-c3ccc(F)cc3)n2)C(F)(F)F)cc2cc(C)nnc12", "note": "[JNJ-8003]", "values": [
      {"measurement": "pIC50", "setting": "[1]", "result": "< 4.00"},
      {"measurement": "pIC50", "setting": "[2]", "result": "< 4.00"}
    ]}
  ]
}
